# Source: patent US4923892A, “Tricyclic aromatic compounds” (Burroughs Wellcome Co., priority 1985, dated 1990)
# Assays:
# LD50 in rats = conditions: rat, in vivo
# [1] = test system: Compound 48/80 Induced Anaphylactoid Reaction; experiment: Anaphylactoid activity: inhibition of compound 48/80 induced anaphylactoid reaction in rats; type: in vivo, Wister rats; conditions: Rattus norvegicus, po, dosed 2 hours before compound 48/80 (2 mg/kg i.v.), propranolol 5 mg/kg i.p., at least 50 animals, read-out: ED50, dose providing 50% protection against death induced by compound 48/80
# Method: Non-fasted, Wister rats (180-300 g) were dosed with the test compound (i.p. or p.o.) 2 hours before compound 48/80 challenge. One hour prior to challenge, 5 mg/kg i.p. of propranolol was administered. The anaphylactoid inducing agent, compound 48/80 which is well known in the art of pharmacology, was given intravenously at 2 mg/kg and the animals were monitored for symptoms of respiratory distress.
# Data were analyzed by Probit determinations. The response was quantitated by determining the dose of test compound which protected 50% of the animals from death at a given time point.
# Agents which block the effects of compound 48/80 are commonly classified as inhibitors of anaphylactic mediators or inhibitors of the release of anaphylic mediators.
# histamine = experiment: In vivo antihistaminic activity: protection of guinea pigs against histamine aerosol challenge; parameters: species or system Guinea pigs (Hartley, male)
SMILES,LD50 (LD50 in rats; ip) [mg/kg],LD50 (LD50 in rats; po) [mg/kg],ED50 [1] [mg/kg],"ED50 (histamine; Cavia porcellus, po, 4 hr post dosing, guinea pigs, 0.25% histamine aerosol, at least 40 animals) [mg/kg]",antihistaminic activity in vivo (histamine; in words),duration of antihistaminic activity (histamine; in words)
"CN(C)CC/C=C1/c2ccccc2COc2ccc(C(=O)O)cc21 [Compound 1, (Z)-11-(3-(Dimethylamino)propylidene)-6,11-dihydrodibenz[b,e]oxepin-2-carboxylic acid]",~210,> 500,1.1,0.15,extremely good antihistaminic activity in vivo,very long durations of antihistamic activity
"CN(C)CCC=C1c2ccccc2COc2ccccc21 [Doxepin, 11-(3-(dimethylamino)propylidene)-6,11-dihydrodibenz[b,e]oxepin]",–,–,0.15,–,–,–
Cc1ccc(/C(=C\CN2CCCC2)c2ccccn2)cc1 [Triprolidine],–,–,> 30,–,–,–
